Assays:
Swiss CD1 mice = assay: CFA thermal hyperalgesia, synergy with opioids
Experimental: We compared the activity of […] with that of the opioids to study its analgesic effect.
Mice of the Swiss CD1 type were given a single intraplantar injection of 30 microlitres of complete Freund adjuvant (CFA) in the right plantar pad. Intraperitoneal injection of […] and/or of morphine (morphine chlorhydrate, Molteni) was administered 24 hours after injection of CFA according to the following scheme:
1. […] 7.5 mg/kg; 2. […] 10 mg/kg; 3. […] 200 mg/kg; 4. […] 50 mg/kg; 5. Morphine 0.4 mg/kg; 6. Morphine 2.5 mg/kg; 7. Morphine 1 mg/kg; 8. Morphine 0.4 mg/kg; 9. Morphine 1 mg/kg+[…] 10 mg/kg; 10. Morphine 0.4 mg/kg+[…] 10 mg/kg; 11. Morphine 1 mg/kg+[…] 10 mg/kg; 12. Morphine 0.4 mg/kg+[…] 10 mg/kg; 13. Morphine 4 mg/kg.
Groups 9-11 and 10-12 have the same doses respectively; they were repeated to confirm the results.
Thermal hyperalgesia was assessed using the Ugo Basile apparatus (Comerio, Italy).
The test was carried out before (baseline values) injection of CFA, after injection of CFA and 0.5, 1, 2, 3, 6 and 12 hours after injecting the drug in the inflamed pad.

NOD/scid mice = assay: Graft-versus-host disease (human PBMCs); type: in vivo, mouse
Experimental: Two groups of NOD/scid mice of 8-10 weeks were used, and were kept in cages under sterile flow at an SPF animal facility.
On day −1, to avoid residual activity of natural killer cells, the mice were administered an anti-NK antibody intraperitoneally (TMβ-1.1 mg/mouse). On day 0 the mice were irradiated (300 rad) and they were administered, intraperitoneally, 20×10^6 human peripheral blood mononuclear cells (PBMCs), previously isolated. The PBMCs are isolated by means of buffy coat from blood from healthy donors.
On the same day, the mice were treated with […] intraperitoneally at two doses, 10 mg/kg and 20 mg/kg. The treatment was repeated daily for 15 days.
The mice were checked regularly 3 times a week to monitor the weight loss (also as independent variable) and signs of GvHD using a clinical score (0 for weight loss <10%, 1 for 10%-20%, 2 for 20%; hunching (0-2), reactivity (0-2), appearance of the fur (0-2), and skin integrity (0-2)), with a maximum score of 10.

mice = assay: Asthma: ovalbumin sensitization and aerosol challenge, BALF; type: in vivo, mouse; details: 6 mg/kg intratracheal 30 minutes before OA aerosol; FIG. 38
Experimental: Sensitization of mice with ovalbumin (OA) adsorbed on aluminium hydroxide, administered intraperitoneally on day 0 and day 7, can cause a similar asthmatic manifestation when the mouse is subsequently (days 19-21) challenged with OA aerosol. The mice were anaesthetized 30 minutes before the OA aerosol and the treated group received an intratracheal injection of […] 6 mg/kg.
Twenty-four hours after the last administration of OA, a bronchoalveolar lavage was carried out with 3×1 ml of PBS free from calcium and magnesium ions.

male Sprague Dawley rats = assay: Pain from chemotherapeutic drugs: model with paclitaxel (von Frey, Hargreaves); type: in vivo, rat; details: P≦0.001
Experimental: One of the best validated models for testing this effect is that described hereunder; repeated administration of paclitaxel to rats. The animals (male Sprague Dawley rats weighing 250-300 g; Harlan, Italy) were treated with paclitaxel (2 mg/kg) administered intraperitoneally on alternate days (day 0,2,4,6). The behavioural tests for thermal and mechanical sensitivity were carried out on day 1 (the day following the first injection of paclitaxel), day 10, day 14 (7 days from the last injection), day 24 (peak severity of hyperalgesia and allodynia), day 30 and day 35 (day on which the animals were sacrificed). The animals (n=15) were divided into three experimental groups. The first group (A) received the treatment with paclitaxel, and was treated daily with […], 6 mg/kg by intraperitoneal injection from day 14 to day 35; the second group (B) treated with paclitaxel, was treated from day 14 to 35 with only the vehicle, and finally the third group consisted of naive animals (C). The results obtained are shown in the bar charts in FIGS. 18 and 19.

C=C(C=O)OC(C=O)n1cnc2c(N)ncnc21 (stereo not shown) [2-[1-(6-aminopurin-9-yl)-2-oxoethoxy]prop-2-enal]
values of nociception (thermal hyperalgesia) (Swiss CD1 mice; IMMUFLAM alone i.p., all the doses tested): brings back the values of nociception to the baseline values | obsessive-compulsive disorders (behaviour) (Swiss CD1 mice; mice treated with IMMUFLAM alone): did not display any behaviour of this kind | resistance to GvHD (clinical score) (NOD/scid mice; 10 mg/kg and 20 mg/kg i.p. daily for 15 days, FIG. 37): statistically significant, dose-dependent resistance to GvHD | survival (NOD/scid mice; 10 and 20 mg/kg i.p., untreated all die within 50 days): reaching three months from transplant | immune cells and mediators of inflammation in BALF (mice): Significantly lower levels of immune cells and mediators of inflammation | threshold of mechanical sensitivity (von Frey) (male Sprague Dawley rats; group A, paclitaxel + IMMUFLAM 6 mg/kg i.p. daily from day 14, day 30, vehicle 11.85±0.61 s): 18.28 ± 0.65 s | threshold of thermal sensitivity (Hargreaves) (male Sprague Dawley rats; paclitaxel + IMMUFLAM 6 mg/kg i.p. for twenty-one days (day 35), vehicle 5.82±0.18 s): 10.21 ± 0.34 s

— patent US20160129005A1, “ADENINE DERIVATIVES HAVING IMMUNOMODULATING ANTI-INFLAMMATORY AND ANALGESIC ACTIVITY” (MEDESTEA RESEARCH & PRODUCTION S.p.A., priority 2011, published 2016)
